Measured values published in the METLIN SMRT retention time set (Domingo-Almenara et al. 2019).

Assay: gradient 5% acetonitrile 3 min, to 50% in 2 min, to 85% in 15 min, held 3 min, 100 µL/min
Settings: column: Zorbax Extend-C18 2.1 x 50 mm; eluents: water / acetonitrile, 0.1% formic acid
Procedure, shortened: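 Each retention time is based on an adduct peak selected computationally and verified by manual inspection. Measurements used HPLC–quadrupole time-of-flight mass spectrometry in positive and negative ionization mode on mixtures of ~100 pure standards. Chromatography ran on a Zorbax Extend-C18 column (2.1 × 50 mm, 1.8 μm) at 100 μL/min with water and acetonitrile, each containing 0.1% formic acid, and dead and dwell volumes of 40 μL and 900 μL.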

RP-LC retention time	SMILES
976 s	Cc1ccccc1-c1nnc(CSc2nnc(NC(=O)c3cccc(F)c3)s2)o1
703 s	COc1cccc(CN2CCC3(CC2)C(OC)C(=O)N3c2cccc(F)c2)n1 (centres undefined)
778 s	CCN1CCCn2cc(S(=O)(=O)Nc3ccc(C)c(C)c3)cc2C1=O
1130 s	COc1ccccc1N1CCN(c2cc(SCC(=O)Nc3cc(F)ccc3F)ncn2)CC1
627 s	O=C(Nc1ccc2nc(N3CCN(C4CCCCC4)CC3)cc(C(=O)O)c2c1)c1ccccc1Cl
811 s	O=C(c1c[nH]c2ccccc12)N1CCN(c2cc(-c3ccc(Cl)cc3)[nH]n2)CC1
861 s	O=C(NCc1nc(-c2ccc3c(c2)Sc2ccccc2C(=O)N3C2CC2)no1)c1ccco1
585 s	COc1cc(CN2C[C@@H]3C(=O)N(C)C(=O)[C@@H]3C2)cc(OC)c1
795 s	O=C(CCc1c(-c2ccccc2)nc2ccccn12)Nc1ccc(F)cc1Cl
705 s	CCC1CCCCN1C(=O)c1cnc2nc(C)ccc2c1Nc1cc(F)ccc1C (centres undefined)
776 s	Cc1cc(C)cc(NC(=O)N(C)CC2CCOCC2)c1
689 s	Cc1nc(-c2noc(-c3ccncc3)n2)cn1CC(=O)N1CCN(c2ccc(F)cc2)CC1
862 s	N#Cc1cccc(NC(=O)CSc2nc(N3CCc4ccccc4C3)nc3ccccc23)c1
839 s	CC1CCN(C(=O)c2cc(S(=O)(=O)N3CCC(C(=O)NC4CCCCC4)CC3)cn2C)CC1
637 s	O=C(c1ccc(=O)oc1)N1CCN(Cc2nc(-c3ccccc3)cs2)CC1
817 s	O=C(NCc1cccs1)c1ccc2c(c1)CC(=O)N2Cc1ccccc1
1100 s	Cc1ccc(N(C)C(=O)C2CCN(S(=O)(=O)c3ccc(-c4noc(C5CC5)n4)cc3)CC2)cc1
876 s	O=C(c1cc2c(=O)n(Cc3ccccc3)ccc2s1)N1CCCCCC1
584 s	COCc1noc([C@@H]2CC(F)(F)CN2C(=O)c2cncn2C)n1
790 s	CCCc1noc(-c2cccnc2N2CCCN(Cc3cc(C)ccc3C)CC2)n1
1010 s	COc1ccc(OC)c2sc(NC(=O)c3cc(Cl)sc3Cl)nc12
724 s	Cc1ccc(C)c(NC(=O)CN2CCC(c3nc(-c4cccs4)no3)CC2)c1
1020 s	CCC(C)NC(=O)C1CCN(S(=O)(=O)c2cc(-c3noc(C(C)C)n3)sc2C)CC1 (centres undefined)
1200 s	CCOC(=O)c1sc2ncnc(N3CCN(c4ccccc4OC)CC3)c2c1C
804 s	O=C(Cc1c[nH]c2ccccc12)NCCc1c[nH]c2ccc(F)cc12
640 s	CC(C)n1c(CCNC(=O)c2ccccc2)nc2cccnc21
886 s	Cc1cn2c3c(=O)n(Cc4c(F)cccc4Cl)c(=O)n(C)c3nc2n1C(C)C
772 s	COC(=O)c1ccc2c(=O)n(Cc3ccc(F)cc3)c(N3CCN(c4ccccn4)CC3)nc2c1
813 s	CC1CCN(S(=O)(=O)c2ccc3nn(CC#N)c(=O)n3c2)CC1

Continued, molecule first:

SMILES	RP-LC retention time
CNC(=O)N1CC2(CCCCC2)CC1COCc1ccccc1 (centres undefined)	1060 s
COc1ccc(C2(C(=O)N3CC(n4c(C)cnc4-c4ccccc4)C3)CC2)cc1	661 s
COc1ccc(OC)c2sc(NC(=O)c3ccc(S(=O)(=O)N4CCCC4)cc3)nc12	872 s
O=C(NCc1ccncc1)c1ccc(-c2cccs2)nc1	588 s
CC(C)(C)c1nnc(NC(=O)C2CCN(C(=O)c3cccc(F)c3)CC2)s1	765 s
Cc1nn(-c2ccccc2)c(C)c1N1CCN(S(=O)(=O)c2c(C)noc2C)CC1	952 s
COc1ccc(N2CCN(C(=O)C3CCCN(c4ncnc5c4nc4n5CCCCC4)C3)CC2)cc1 (centres undefined)	738 s
CC(=O)Nc1ccc2c(c1)Sc1ncccc1C(=O)N2C(C)C	669 s
Cc1nc2cc(-c3noc(CCc4ccccc4)n3)ccc2o1	1050 s
NC(=O)C1CCN(C(=O)c2ccc(Cn3c(=O)c4cccn4c4cccnc43)cc2)CC1	655 s
Cc1ccc(NC(=O)N2CCCC2c2nncn2C2CCCC2)c(C)c1 (centres undefined)	692 s
CCOc1ccccc1NC(=O)Cn1c(CC)nc2c(c1=O)CN(Cc1ccccc1)CC2	687 s
CN1C(=O)Cc2cc(C(=O)N3CCN(c4ccc(Cl)cc4)CC3)ccc21	813 s
Cc1nc2c(sc3nc(-c4ccccc4)ccc32)c(=O)n1CC(=O)Nc1ccccc1F	982 s
COCCCNC(=O)c1nc(Nc2ccc(C)cc2)c2ccccc2n1	709 s
CCCNC(=O)C1CCCN(c2ccc(SCC(=O)Nc3ccc(Cl)cc3)nn2)C1 (centres undefined)	712 s
Clc1ccc(Nc2c(-c3cccc(Cl)c3)nc3ccc(Cl)cn23)cc1	1140 s
CCCS(=O)(=O)NCCS(=O)(=O)N1CCN(c2cccc(Cl)c2)CC1	867 s
CCn1c(C(=O)NCCC(C)C)cc2c(=O)oc3ccccc3c21	751 s
COc1ccc(NC(=O)C2=Cc3ccccc3OC=C2)c(OC)c1	1030 s

SMILES	RP-LC retention time
O=C(C1=NNc2ccccc2S1(=O)=O)N1CCCCC1	773 s
Cc1oc2ncnc(OCC(=O)Nc3ccc(S(N)(=O)=O)cc3)c2c1C	738 s
COc1ccc(-c2cc(-c3ccccc3)nc3c2CC(=O)Nc2ccccc2-3)cc1OC	1100 s
CCN1C(=O)C2(CCN(C(=O)NCCC(C)C)CC2)c2ccccc21	854 s
c1ccc(CN2CCC3(CCc4ccccc43)CC2)cc1	784 s
Cc1cc(C)n(CCC(=O)N2CCC(n3c(C)cnc3C)C2)n1 (centres undefined)	563 s
CCOCC(=O)N1CC(c2nc(CCOC)no2)C1	600 s
O=C(c1nc(-c2ccnc(N3CCCCC3)c2)no1)N1CCC2(CC1)OCCO2	673 s
Cc1ccc(NC(=O)C2CCCN(c3ccc(=O)n(-c4cccc(Cl)c4)n3)C2)c(C)c1 (centres undefined)	964 s
COc1ccc(-c2nc3cnccn3c2Nc2ccc(C)cc2C)cc1OC	871 s
CCCC(=O)N1CCc2c(c(C(=O)NCc3ccc4c(c3)OCO4)nn2C)C1	728 s
Cc1cccc(C(=O)N2CCC3(CC2)NC(=O)c2cc(C)ccc2N3C)c1	805 s
COc1cccc(CNC(=O)C2CCCN(c3ccc(-c4nc(C)no4)cn3)C2)c1OC (centres undefined)	753 s
CCc1ccc2[nH]c3c(c(=O)c2c1)CN(CC(=O)Nc1cc(OC)cc(OC)c1)CC3	642 s
CCCOc1nc2ccccc2nc1N1CCCC(C(=O)Nc2cc(C)ccc2C)C1 (centres undefined)	1340 s
Cc1ccc2nc(-c3c(F)cccc3Cl)c(Nc3ccc4c(c3)OCO4)n2c1	700 s
COc1ccc(Nc2c(C(=O)N3CCCC3)cnc3nc(C)ccc23)c(OC)c1	600 s
Fc1ccc(Cc2nc(-c3ccc4nncn4c3)no2)cc1	770 s
Cc1ccccc1Cc1nc2ccccc2n1CC(N)=O	570 s
Cc1ccn2c(NC(=O)C(C)(C)C)c(-c3ccc(F)cc3)nc2c1	648 s

SMILES	RP-LC retention time
CS(=O)(=O)N1CCCN(C(=O)c2ccccc2F)CC1	651 s
Fc1ccc(C(OCCN2CCN(CCCc3ccccc3)CC2)c2ccc(F)cc2)cc1	957 s
Cc1ccc(-n2c(N3CCCC(C(=O)NCc4ccc(F)cc4F)C3)nc3ccsc3c2=O)cc1 (centres undefined)	918 s
COc1ccc2c(c1)C1(CCN(C(=O)Cc3ccc(C)cc3)C1)C(=O)N2 (centres undefined)	757 s
Cc1nc(-c2ccccc2)nc2c1CC(=O)N2Cc1cccs1	1070 s
O=C(NCCc1ccc(Cl)cc1)C1CCCN(c2ncnc3c2nc2n3CCCCC2)C1 (centres undefined)	838 s
Cc1ccc(N2C(=O)N(CC(=O)N3CCCCC3C)C3CS(=O)(=O)CC32)cc1Cl (centres undefined)	851 s
Cc1ccc2c(Nc3ccc(C)c(C)c3)c(C(=O)N3CCC(C)CC3)cnc2n1	681 s
O=S(=O)(c1cccn2cnnc12)N(Cc1ccc(F)cc1)c1ccc(F)c(F)c1	887 s
CCCNC(=O)C1CCN(c2cc(SCC(=O)Nc3cccc(CC)c3)ncn2)CC1	810 s
COc1ccccc1CCC(=O)N1CCc2cc(-c3csc(C)n3)ccc21	1090 s
CN1C(=O)C(C)(C(=O)NCc2ccc(Br)cc2)Oc2cccnc21 (centres undefined)	837 s
CCn1c(SC)nnc1-c1nn(C)c2c1CN(C(=O)c1ccccc1)CC2	740 s
Cn1c(=O)c(SCC(=O)NCc2cccc(Br)c2)nc2cccnc21	806 s
COc1ccc(Cl)cc1NC(=O)C1CCN(C(=O)c2cccn2-c2cccnc2)CC1	784 s
O=C(NCc1nnnn1-c1ccc(F)c(F)c1)c1cc(=O)c2ccccc2o1	707 s
Cc1cnc(C)n1C1CCN(C(=O)c2cccn2C)C1 (centres undefined)	580 s
COc1ccc(C(=O)NCc2c(C)noc2C)cc1F	693 s
Cc1nc(-c2cn(Cc3cccc(F)c3)nn2)no1	748 s
OCCNCCNCc1ccc(-c2ccccc2F)o1	563 s
